Among the data in article PMC12040169 (PLOS Biology, 2025) are viability values, retold here.

Each structure is given as a SMILES string.

A short description of the series: in vitro. The following applies: human, hela cells, % viability.

As to `CCn1nc2c(C)cc3ccc(OC)cc3n2c1=O` [CBK283796], the viability at 28.5 h, 10 µM is 78.3%.

`Cc1ccc(S(=O)(=O)Nc2ccc(C(C)C)cc2)cc1C(=O)O` [CBK297766]: the viability at 28.5 h, 10 µM amounted to 84.2%.

Turning to `O=c1[nH]c2ccccc2n1CCCN1CCN(c2nccnc2Oc2ccc(F)cc2)CC1` [CBK083027T], the viability at 28.5 h, 10 µM was found to be 88.2%.

Regarding `Cn1ncc(N2CCC(CNC(=O)Cc3ccc(O)c(Cl)c3)C2)cc1=O` (stereo not drawn) [CBK307689], the viability at 28.5 h, 10 µM is 113%.

On to `Cc1nn(-c2ccc(C(=O)O)cc2)c2c1C(=O)CC(C)(C)C2` [CBK286734], for which the viability at 28.5 h, 10 µM stood at 86.4%.

Take `CC(C)C(=O)N1CC2(CCN(Cc3nc4ccccc4s3)CC2)c2ccccc21` [CBK136980]: the viability at 28.5 h, 10 µM is 96%.

Consider `Cc1ccc(OCC(=O)Nc2cccc(C(=O)O)c2)cc1` [CBK287023], for which the viability at 28.5 h, 10 µM is 110%.

As to `CC(=O)Nc1ccc(-c2ccc(=O)n3c2[C@@H]2C[C@@H](CN(C(=O)C(C)(C)C)C2)C3)cc1` [CBK289199], the viability at 28.5 h, 10 µM came to 112%.

With `Cc1nn(CC(=O)NCC(c2cccnc2)N2CCOCC2)c(C)c1Cl` (stereo not drawn) [CBK304659], the viability at 28.5 h, 10 µM was found to be 118%.

On to `CCn1nc(C2CCCC2)nc1-c1cnc2ccnn2c1C` [CBK306626], for which the viability at 28.5 h, 10 µM is 87.1%.

Take `CCCCNC(=O)N(O)C1N(C)C(=S)SC1(C)C` (stereo not drawn) [CBK006880]: the viability at 28.5 h, 10 µM worked out at 91.2%.

Turning to `CC(C)CC12CN3CCN(CC(C3)/C1=N\N=C1/C3CN4CCN(C3)CC1(CC(C)C)C4)C2` [CBK265036], the viability at 28.5 h, 10 µM is 99.1%.

Consider `Cc1cnc2c(Cl)c(C(=O)N3CCC4(CCCNC4)C3)nn2c1` (stereo not drawn) [CBK307472], for which the viability at 28.5 h, 10 µM was 116%.

On to `Nc1nc(N2CCCCC2)nc2ccccc12` [CBK012270], for which the viability at 28.5 h, 10 µM turned out to be 114%.

As to `Cc1cccc(OCc2nnc(SCC(=O)NC3CCCCC3)o2)c1` [CBK264652], the viability at 28.5 h, 10 µM stood at 96.3%.

For `Cc1cccc(-c2ncc(NC(=O)c3cccc(N(C)C)c3)nc2-c2ccco2)c1` [CBK036654], the viability at 28.5 h, 10 µM was 103%.

Consider `Cc1nn(Cc2cccc3ccccc23)c(C)c1NC(=O)c1ccccn1` [CBK269936], for which the viability at 28.5 h, 10 µM is 105%.

Consider `CCOC(=O)c1cc(C(C)C)sc1NC(=O)C1C2C=CC(C2)C1C(=O)O` (stereo not drawn) [CBK265417], for which the viability at 28.5 h, 10 µM was 95.4%.

Consider `Cn1cc(-c2ccncc2)c(C2CCCCN2C(=O)c2ccccc2)n1` (stereo not drawn) [CBK283444], for which the viability at 28.5 h, 10 µM came out at 75.7%.

In the case of `C#C[C@H]1C[N@@]2CC[C@H]1C[C@@H]2CNC(=O)Nc1ccc(C(C)=O)cc1` [CBK288755], the viability at 28.5 h, 10 µM is 114%.

Consider `CC[C@H](Cn1ncc2ccccc2c1=O)NC(=O)C(C)(C)C` [CBK284304], for which the viability at 28.5 h, 10 µM came to 90.2%.

For `O=S(=O)(Nc1nccnc1N1CCN(c2cnccn2)CC1)c1ccc(Cl)cc1` [CBK049664], the viability at 28.5 h, 10 µM turned out to be 88.1%.

In the case of `COc1ccc(/C=N/NC(=O)Cn2nnnc2N)cc1` [CBK262122], the viability at 28.5 h, 10 µM worked out at 84.9%.

Consider `O=C1CCCN1CCCNc1nccnc1-c1ccc(CO)cc1` [CBK036860], for which the viability at 28.5 h, 10 µM is 87.2%.

On to `CCCC/C=C/c1cncc(NCc2cccc(Cl)c2)n1` [CBK065293], for which the viability at 28.5 h, 10 µM came to 97.3%.

Take `COc1ccc(S(=O)(=O)N2CCN(C(=O)c3cc(-c4cccnc4)nc4c(C)cc(C)cc34)CC2)cc1OC` [CBK267767]: the viability at 28.5 h, 10 µM is 99.4%.

In the case of `CCOc1ccc(-c2cncc(Nc3ccc(C#N)cc3)n2)cc1` [CBK065862], the viability at 28.5 h, 10 µM was 87.2%.

In the case of `CN1C[C@@H](NC(=O)c2ccc3c(c2)OCO3)C[C@H]1c1nc(-c2ccc(Cl)cc2)no1` [CBK288854], the viability at 28.5 h, 10 µM is 90.6%.

Turning to `CCCN1CCC(CNC(=O)Cn2ccc3ccc(F)cc32)CC1` [CBK282573], the viability at 28.5 h, 10 µM amounted to 88%.

Regarding `O=C(CN1CCC(C(=O)c2ccc(F)cc2)CC1)c1ccsc1` [CBK149137], the viability at 28.5 h, 10 µM was 95.5%.

Turning to `CC(=O)NCCSc1cccc(C(F)(F)F)n1` [CBK105299], the viability at 28.5 h, 10 µM stood at 112%.

For `O=C(NCc1ccncc1)C1CC1c1ccccc1` (stereo not drawn) [CBK288242], the viability at 28.5 h, 10 µM was found to be 107%.

Take `Cn1c(=O)n(CC(=O)NC2(C)C3CCC(C3)C2(C)C)c2cccnc21` (stereo not drawn) [CBK283330]: the viability at 28.5 h, 10 µM came to 84.9%.

For `Cc1cnn(C2CCCN(C(=O)CC3C(=O)Nc4ccccc43)C2)c1` (stereo not drawn) [CBK304930], the viability at 28.5 h, 10 µM came out at 81.7%.

Consider `CN1CCN(CCCOc2ccc(OCc3ccccc3)cc2)CC1` [CBK265077], for which the viability at 28.5 h, 10 µM worked out at 98.2%.

On to `Fc1ccc2c(c1)[C@@H](Oc1cncc(NC3CCCNC3)n1)CCO2` (stereo partly drawn) [CBK172256G], for which the viability at 28.5 h, 10 µM came out at 92.6%.

With `Cc1nc(-c2cc3c(s2)CCN(Cc2ccc(CO)o2)C3)cs1` [CBK306411], the viability at 28.5 h, 10 µM stood at 90%.

For the compound `O=C(O)CCSCC(=O)c1ccc(NS(=O)(=O)c2ccccc2)cc1` [CBK300504], the viability at 28.5 h, 10 µM was determined as 97.5%.

Consider `COCCN(CC1CC1)C(=O)c1cc(NC(C)=O)ccc1Cl` [CBK304352], for which the viability at 28.5 h, 10 µM amounted to 109%.

As for `Cc1cc(C(=O)NCCn2nc(C)c(C)c2C)c2cccc(C)c2n1` [CBK281388], the viability at 28.5 h, 10 µM is 110%.

For `COc1ccc(-c2cc(NC(=S)NC(=O)/C=C/c3ccccc3)[nH]n2)cc1` [CBK007190], the viability at 28.5 h, 10 µM turned out to be 97.9%.

Consider `O=C(NCc1ccc2c(c1)OCO2)c1ccccc1CCc1ccccc1` [CBK268591], for which the viability at 28.5 h, 10 µM is 107%.

In the case of `O=C(NCc1ccc2c(c1)CCN2C(=O)c1ccncc1)c1cccc(F)c1` [CBK288586], the viability at 28.5 h, 10 µM was found to be 102%.

As for `O=C(Nc1cccc2ccccc12)/C(=C\c1ccco1)NC(=O)c1ccc(Br)cc1` [CBK264587], the viability at 28.5 h, 10 µM amounted to 104%.

Take `CC(C)[C@H](CO)Nc1nccnc1-c1ccco1` [CBK037390]: the viability at 28.5 h, 10 µM came out at 99%.

On to `O=S(=O)(c1ccc2ccccc2c1)c1cnns1` [CBK001887], for which the viability at 28.5 h, 10 µM stood at 97.7%.

For `CC(C)(CO)CNc1cncc(-c2cc3ccccc3o2)n1` [CBK066029], the viability at 28.5 h, 10 µM was determined as 91.1%.

`COc1cccc(NC(=O)CC(CN2CCN(c3ccccc3)CC2)C(=O)O)c1` (stereo not drawn) [CBK286789]: the viability at 28.5 h, 10 µM worked out at 90.7%.

In the case of `Cc1cc(O)c(C(=O)Nc2cccc(Cl)c2)c(=O)n1Cc1ccccn1` [CBK287729], the viability at 28.5 h, 10 µM worked out at 99.3%.

`CS(=O)(=O)N1CCN(c2ccccc2NC(=O)Cc2ccc(Cl)cc2)CC1` [CBK267605]: the viability at 28.5 h, 10 µM was 94.9%.

Turning to `O=C(CSc1nnc(-c2ccccc2O)n1-c1ccccc1)N1CCc2ccccc21` [CBK268097], the viability at 28.5 h, 10 µM is 100%.

In the case of `O=C1NC2(CCCN(C(=O)c3cccs3)C2)Oc2ccccc21` (stereo not drawn) [CBK284799], the viability at 28.5 h, 10 µM came to 93%.

Take `COc1ccc2c(c1)COC1(CCN(C(=O)CC(C)(C)CC(=O)O)CC1)O2` [CBK060855]: where the note is “bulk resorufin, single well”, the viability at 28.5 h, 10 µM turned out to be 90.3%.

On to `COc1ccc(-n2cc(-c3cccc(C(F)(F)F)c3)nn2)cc1OC` [CBK112933], for which the viability at 28.5 h, 10 µM came out at 94.9%.

Regarding `Fc1ccc(CCN2CCCCC2c2cc3ccccc3[nH]2)cc1` (stereo not drawn) [CBK107227T], the viability at 28.5 h, 10 µM was 89.6%.

As to `Cc1[nH]c(=O)c(C(=O)Nc2ccc(-n3ccc(C(N)=O)n3)cc2)cc1-c1ccccc1` [CBK291194], the viability at 28.5 h, 10 µM was 109%.

Take `C/C(=N/NC(N)=S)c1ccccc1OCC(=O)O` [CBK007123]: the viability at 28.5 h, 10 µM worked out at 97.9%.

Take `CN(C)C(=O)c1ccc(Cn2ccnc(N3CCC(Sc4ccccc4)CC3)c2=O)cc1` [CBK153651]: the viability at 28.5 h, 10 µM amounted to 107%.

As to `COc1ccc(-c2cc(C(=O)NCCc3c[nH]c4ccccc34)cnc2-c2ccc(F)cc2)cn1` [CBK036649], the viability at 28.5 h, 10 µM is 95.2%.

For the compound `O=C1/C(=N\Nc2ccc([N+](=O)[O-])cc2[N+](=O)[O-])c2ccccc2N1CN1CCCCC1` [CBK260926], the viability at 28.5 h, 10 µM worked out at 94.4%.

As to `COc1ccccc1-c1nc(C2CCCN2C(=O)CCCC(=O)O)n2ccccc12` (stereo not drawn) [CBK046600], the viability at 28.5 h, 10 µM is 90.3%.

Take `Cc1ccccc1N1CCN(C(=O)c2c(C)oc3cc4c(C(=O)N5CCN(c6ccccc6C)CC5)c(C)oc4cc23)CC1` [CBK264833]: the viability at 28.5 h, 10 µM worked out at 89.2%.

`O=C(COc1ccccc1)Nc1nccs1` [CBK058018]: the viability at 28.5 h, 10 µM came to 93.4%.

Take `CC(C)(C)c1ccc(CN2CCN(C(=O)c3ccc(-c4ccc(S(C)(=O)=O)cc4)cn3)CC2)cc1` [CBK160487]: the viability at 28.5 h, 10 µM is 96.1%.

In the case of `CCOC(=O)C1=NN(C(=O)c2ccc(Cl)cc2)C(O)(C(C)(C)C)C1` (stereo not drawn) [CBK026308], the viability at 28.5 h, 10 µM worked out at 86%.

For `COc1cc(S(=O)(=O)NCCc2ccccc2)c(OC)cc1C` [CBK269868], the viability at 28.5 h, 10 µM stood at 94.1%.

For `S=c1[nH]cnc2scc(-c3ccc(Cl)cc3)c12` [CBK094069], the viability at 28.5 h, 10 µM worked out at 76.5%.

As for `COc1ncc(-c2cccc(NCC(c3cccnc3)N(C)C)n2)c(OC)n1` (stereo not drawn) [CBK037723], the viability at 28.5 h, 10 µM was found to be 104%.

For the compound `CS(=O)(=O)N1CC2(CCN(C(=O)[C@@H](N)COCc3ccccc3)CC2)c2ccccc21` [CBK022597C], the viability at 28.5 h, 10 µM came out at 104%.

Consider `CCCC/C=C/c1cncc(NC2CCC(O)CC2)n1` (stereo not drawn) [CBK037840], for which the viability at 28.5 h, 10 µM was determined as 105%.

As to `Cc1ncsc1C(=O)N1CCNCC1c1cccc(F)c1` (stereo not drawn) [CBK305463], the viability at 28.5 h, 10 µM was found to be 93.1%.

As for `Cc1cccc(C)c1NC(=O)C(=O)NCCCN1CCOCC1` [CBK264850], the viability at 28.5 h, 10 µM is 90.6%.

Consider `COC(=O)c1ccsc1NC(=O)CN1CCN(Cc2ccc3c(c2)OCO3)CC1` [CBK267940], for which the viability at 28.5 h, 10 µM amounted to 97.6%.

`COCCN1C(=O)C2(CC(=O)N(CCc3scnc3C)C2=O)c2cc(Cl)ccc21` (stereo not drawn) [CBK075321]: the viability at 28.5 h, 10 µM worked out at 93.6%.

On to `CC1=CC(C)C(C(=O)O)C(C(=O)N2CCN(C)CC2)C1` (stereo not drawn) [CBK027311G], for which the viability at 28.5 h, 10 µM came to 97.7%.

On to `CCCc1nnc(SC(C)C(=O)N2CCCc3ccccc32)[nH]1` (stereo not drawn) [CBK306480], for which the viability at 28.5 h, 10 µM came to 90%.

Turning to `Cn1sc(=O)c2cc(S(=O)(=O)NC3CC3)ccc21` [CBK009163], the viability at 28.5 h, 10 µM stood at 86%.

As to `CC(=O)c1ccc(NC(=O)NNS(=O)(=O)c2ccc(F)cc2)cc1` [CBK266944], the viability at 28.5 h, 10 µM turned out to be 109%.

As a reminder, the viability is a read-out of living cells in per cent, often relative to untreated cells.
